As usually defined, the melting point is the temperature of the solid-liquid transition.

The test system of one series is Spodoptera littoralis. Kind of series: Spodoptera littoralis (Egyptian Cotton Leafworm) cotton leaf disc spray test. Type of series: in vivo. The following applies: foliar, 72 h, 200 ppm spray on cotton leaf discs, L1 larvae, mortality, feeding behavior, growth regulation 3 DAT.
The test system of the next series is Heliothis virescens. Kind of series: Heliothis virescens (Tobacco Budworm) egg test on artificial diet. Type of series: in vivo. As to conditions: 96 h, 200 ppm (concentration in well 18 ppm), eggs 0-24 h old on artificial diet, 4 days, egg mortality, larval mortality, growth regulation.
Another series relates to Plutella xylostella. The experiment in a line: Plutella xylostella (Diamond Back Moth) artificial diet MTP test. The format is in vivo. As to conditions: 144 h, 200 ppm (concentration in well 18 ppm), L2 larvae, 6 days, larval mortality, growth regulation.
A further series relates to Diabrotica balteata. The experiment in a line: Diabrotica balteata (Corn Root Worm) artificial diet MTP test. The following applies: 120 h, 200 ppm (concentration in well 18 ppm), L2 larvae, 5 days, larval mortality, growth regulation. The format is in vivo.
The next series has as its system Thrips tabaci. The experiment in a line: Thrips tabaci (Onion Thrips) sunflower leaf disc spray test. The following applies: foliar, 168 h, 200 ppm spray on sunflower leaf discs, population of mixed ages, 7 days, mortality. Type of series: in vivo.
A further series has as its system Tetranychus urticae. Kind of series: Tetranychus urticae (Two-Spotted Spider Mite) bean leaf disc spray test. The format is in vivo. The following applies: foliar, 192 h, 200 ppm spray on bean leaf discs, mite populations of mixed ages, 8 days, egg, larval and adult mortality, read-out: control of Tetranychus urticae.
The test system of the next series is Myzus persicae. The experiment in a line: Myzus persicae (Green Peach Aphid) sunflower leaf disc spray test. The format is in vivo. As to conditions: foliar, 144 h, 200 ppm spray on sunflower leaf discs, aphid population of mixed ages, 6 DAT, mortality.

`COc1c(NC(=O)c2cc(C)c([N+](=O)[O-])c(C)c2)cccc1C(=O)Nc1c(Cl)cc(C(F)(C(F)(F)F)C(F)(F)C(F)(F)F)cc1Br` (centres unmarked) [B165] showed a melting point of 218 °C.

Compound `CCOc1cc(C(=O)Nc2cccc(C(=O)Nc3c(Cl)cc(C(F)(C(F)(F)F)C(F)(F)C(F)(F)F)cc3Br)c2OC)ccc1[N+](=O)[O-]` (centres unmarked) [B173] registered a melting point of 238 °C.

For the compound `COc1cc([N+](=O)[O-])ccc1C(=O)Nc1cccc(C(=O)Nc2c(Cl)cc(C(F)(C(F)(F)F)C(F)(F)C(F)(F)F)cc2Br)c1OC` (centres unmarked) [B177], the melting point was 190 °C.

Regarding `COc1c(NC(=O)c2ccc(C#N)cn2)cccc1C(=O)Nc1c(Cl)cc(C(F)(C(F)(F)F)C(F)(F)C(F)(F)F)cc1Br` (centres unmarked) [B208], the melting point fell in the range of 208 to 210 °C.

The compound `COc1c(NC(=O)c2c(Cl)cc(Br)cc2Cl)cccc1C(=O)Nc1c(Cl)cc(C(F)(C(F)(F)F)C(F)(F)C(F)(F)F)cc1Br` (centres unmarked) [B209] showed a melting point of 250 °C.

In turn, `COc1c(NC(=O)c2cnc(Cl)nc2Cl)cccc1C(=O)Nc1c(Cl)cc(C(F)(C(F)(F)F)C(F)(F)C(F)(F)F)cc1Br` (centres unmarked) [B210] yielded a melting point of 114 to 115 °C.

Consider `COc1c(NC(=O)c2c(C)cc(Cl)cc2Cl)cccc1C(=O)Nc1c(Cl)cc(C(F)(C(F)(F)F)C(F)(F)C(F)(F)F)cc1Br` (centres unmarked) [B211], for which the melting point lay within 113 to 118 °C.

As to `COc1c(NC(=O)c2cc([N+](=O)[O-])c(F)cc2C)cccc1C(=O)Nc1c(Cl)cc(C(F)(C(F)(F)F)C(F)(F)C(F)(F)F)cc1Br` (centres unmarked) [B212], the melting point lay within 83 to 84 °C.

Take `COc1c(NC(=O)c2ccc(C)cc2)cccc1C(=O)Nc1c(Cl)cc(C(F)(C(F)(F)F)C(F)(F)C(F)(F)F)cc1Cl` (centres unmarked) [C8]: the pest or weed control at 200 ppm in the series on Spodoptera littoralis, in the series on Heliothis virescens, with Plutella xylostella, in the series on Diabrotica balteata, in the series with Thrips tabaci and in the series with Tetranychus urticae was at least 80% in each case. Moreover, the pest or weed control at 200 ppm with Myzus persicae was at least 80%.

`COc1c(NC(=O)c2ccc(F)cc2)cccc1C(=O)Nc1c(Cl)cc(C(F)(C(F)(F)F)C(F)(F)C(F)(F)F)cc1Cl` (centres unmarked) [C19]: the pest or weed control at 200 ppm in the series with Spodoptera littoralis, in the series on Heliothis virescens, in the series with Plutella xylostella, in the series with Diabrotica balteata, in the series with Thrips tabaci and with Tetranychus urticae was at least 80% each time. This compound also returned a pest or weed control at 200 ppm in the series with Myzus persicae of at least 80%.

Consider `COc1c(NC(=O)c2ccc(C#N)cc2)cccc1C(=O)Nc1c(Cl)cc(C(F)(C(F)(F)F)C(F)(F)F)cc1Cl` [E4], for which the pest or weed control at 200 ppm in the series with Spodoptera littoralis, with Heliothis virescens, in the series on Plutella xylostella, in the series on Diabrotica balteata, in the series on Thrips tabaci and in the series on Tetranychus urticae was at least 80% each time. The compound further had a pest or weed control at 200 ppm with Myzus persicae of at least 80%.

For the compound `COc1c(NC(=O)c2ccc([N+](=O)[O-])cc2)cccc1C(=O)Nc1c(Cl)cc(C(F)(C(F)(F)F)C(F)(F)F)cc1Cl` [E5], the pest or weed control at 200 ppm in the series with Spodoptera littoralis, in the series on Heliothis virescens, in the series with Plutella xylostella, with Diabrotica balteata, in the series with Thrips tabaci and in the series on Tetranychus urticae was at least 80% throughout. In addition, the pest or weed control at 200 ppm in the series with Myzus persicae is at least 80%.

For `COc1c(NC(=O)c2ccc([N+](=O)[O-])cc2Cl)cccc1C(=O)Nc1c(Cl)cc(C(F)(C(F)(F)F)C(F)(F)F)cc1Cl` [E9], the pest or weed control at 200 ppm in the series on Spodoptera littoralis, in the series on Heliothis virescens, in the series with Plutella xylostella, with Diabrotica balteata, in the series on Thrips tabaci and with Tetranychus urticae was at least 80% each time. For the same compound, the pest or weed control at 200 ppm in the series on Myzus persicae was at least 80%.

`COc1c(NC(=O)c2ccc(C(F)(F)F)cc2)cccc1C(=O)Nc1c(Cl)cc(C(F)(C(F)(F)F)C(F)(F)F)cc1Cl` [E13]: the pest or weed control at 200 ppm in the series on Spodoptera littoralis, in the series with Heliothis virescens, in the series with Plutella xylostella, in the series on Diabrotica balteata, in the series on Thrips tabaci and with Tetranychus urticae was at least 80% each time. The compound further had a pest or weed control at 200 ppm in the series on Myzus persicae of at least 80%.

On to `COc1c(NC(=O)c2ccc(F)cc2)cccc1C(=O)Nc1c(Cl)cc(C(F)(C(F)(F)F)C(F)(F)F)cc1Cl` [E17], for which the pest or weed control at 200 ppm with Spodoptera littoralis, in the series with Heliothis virescens, in the series on Plutella xylostella, in the series on Diabrotica balteata, with Thrips tabaci and in the series with Tetranychus urticae was at least 80% each time. Besides, the pest or weed control at 200 ppm in the series on Myzus persicae is at least 80%.

As to `COc1c(NC(=O)c2ccc(F)cc2Cl)cccc1C(=O)Nc1c(C)cc(C(F)(C(F)(F)F)C(F)(F)C(F)(F)F)cc1C` (centres unmarked) [F30], the pest or weed control at 200 ppm in the series on Spodoptera littoralis, in the series on Heliothis virescens, with Plutella xylostella, with Diabrotica balteata, in the series with Thrips tabaci and with Tetranychus urticae was at least 80% each time. The compound also registered a pest or weed control at 200 ppm in the series with Myzus persicae of at least 80%.

`COc1c(NC(=O)c2ccc([N+](=O)[O-])cc2)cccc1C(=O)Nc1c(C)cc(C(F)(C(F)(F)F)C(F)(F)F)cc1C` [K2]: the pest or weed control at 200 ppm in the series on Spodoptera littoralis, with Heliothis virescens, in the series on Plutella xylostella, in the series with Diabrotica balteata, in the series with Thrips tabaci and in the series with Tetranychus urticae was at least 80% in each case. The compound further gave a pest or weed control at 200 ppm in the series with Myzus persicae of at least 80%.
